Test results published in paper PMC12217481, “Structure and mechanism of taniborbactam inhibition of the cefepime-hydrolyzing, partial R2-loop deletion Pseudomonas-derived cephalosporinase variant PDC-88” (Antimicrobial Agents and Chemotherapy, 2025).
In brackets after ≈: the same amount, converted by molar mass. Like-named read-outs stand apart in the source and are kept apart here.

How the values were obtained:
[1] = system: E. coli DH10B/pTU606 (PDC-1); experiment: Broth microdilution MIC, isogenic E. coli expressing PDC-1; format: cell-based; details: Escherichia coli
Description: (§1) Genetic constructs used for minimum inhibitory concentration (MIC) testing were designed by Venatorx Pharmaceuticals and codon-optimized for use in E. coli and synthesized by Twist Bioscience as described previously ([9]). […] DH10B cells expressing an empty pET24a(+) vector (Novagen) were also grown, and the plasmid purified. Both pCR4-TOPO-PDC-88 and empty pET24a(+) were cut with BamHI and NdeI, the digests run on low-melting point agarose gels, and the bands of interest excised and ligated to yield a PDC-88 expressing pET24a(+) construct with the His tag removed. The PDC-3 expression construct was created in a similar manner but starting with a previously described pBC SK(−) vector ([42]). The final plasmids were grown in E. coli DH10B cells and purified.
(§2) Modal broth microdilution MICs (or median broth microdilution MICs where appropriate) were determined in accordance with Clinical and Laboratory Standards Institute (CLSI) M07 guidelines ([43]). Isogenic E. coli DH10B cells expressing the abovementioned plasmid-encoded PDC constructs were used. […] CLSI quality control strains Escherichia coli NCTC 13353, E. coli ATCC 35218, and Klebsiella pneumoniae ATCC 700603 were used during testing ([24]).

[2] = system: E. coli DH10B/pTU626 (PDC-89); experiment: Broth microdilution MIC, isogenic E. coli expressing PDC-89; format: cell-based; details: Escherichia coli
Description: as §1, §2

[3] = system: E. coli DH10B/pTU629 (PDC-92); experiment: Broth microdilution MIC, isogenic E. coli expressing PDC-92; format: cell-based; details: Escherichia coli
Description: as §1, §2

E. coli NCTC 13353 = experiment: Broth microdilution MIC, CLSI quality control strain; format: cell-based; details: Escherichia coli
Description: as §2

PDC-3 [4] = target: T1, PDC-3 (Pseudomonas aeruginosa, UniProt P24735, T105A); experiment: Spectrophotometric β-lactam hydrolysis (progress curves, steady-state kinetics) by PDC-3; format: biochemical
T1 construct: The PDC-3 expression construct was created in a similar manner but starting with a previously described pBC SK(−) vector; made in house; host or cells: E. coli BL21-CodonPlus (DE3)-RP, pET24a(+)
Description: (§3) In order to determine the impact of the PDC-88 variant on hydrolysis, we determined hydrolysis progress curves for PDC-3, PDC-88, and a strongly hydrolyzing comparator (NDM-1 or PER-2) for cefepime (FEP, Fig. 3A), ceftazidime (CAZ, Fig. 3B), ceftolozane (TOL, Fig. 3C), and aztreonam (ATM, Fig. 3D).
(§4) β-Lactamase kinetic and inhibitor constants were determined using an Agilent 8453 UV-Visible Spectrophotometer to record progress curves and determine initial rates and other kinetic parameters as appropriate. Reactions were carried out in 1× phosphate-buffered saline (PBS) (pH 7.4) at room temperature in a 0.2 cm path-length quartz cuvette (Hellma Analytics). Reads were taken every 10 s to minimize UV-mediated background hydrolysis.
(§5) The extinction coefficients used were: nitrocefin, Δε482 = 17,400 M^−1 cm^−1, and cefepime, Δε260 = −10,000 M^−1 cm^−1.
(§6) The kinetic constants KM and Vmax were determined using a nonlinear least-squares regression of the data to the Henri-Michaelis-Menten equation (equation 1) in Origin Version 2020b (OriginLab, Northampton, MA), where v is the velocity of the reaction; Vmax is the theoretical maximum velocity; KM is the Michaelis constant; and [S] is the substrate concentration: […]

PDC-88 [5] = target: T2, PDC-88 (Pseudomonas aeruginosa, UniProt P24735, DEL316-317/G27D/G391A/T105A/V205L/V356I); experiment: Spectrophotometric β-lactam hydrolysis (progress curves, steady-state kinetics) by PDC-88; format: biochemical
T2 construct: NdeI 5′-[…]-3ʹ and BamHI 5ʹ-[…]-3ʹ; His tag removed) (N); made in house; host or cells: E. coli BL21-CodonPlus (DE3)-RP, pET24a(+)
Description: as §3, §4, §5, §6

PDC-88 [6] = experiment: as above; format: biochemical, Pseudomonas aeruginosa; details: cefepime as substrate
Description: as §3, §4, §5, §6

PDC-3 [7] = target: T1, PDC-3; experiment: Timed ESI-MS of acyl-enzyme formation, PDC-3; format: biochemical; details: timed ESI-MS, 1 to 30 min (ATM to 60 min)
Description: (§7) Timed ESI-MS experiments allow tracking of the reaction over time and determination of product modification, enabling the elucidation of mechanistic detail. Time courses were collected for both PDC-3 and PDC-88 with FEP (Fig. 4), CAZ (Fig. S1), TOL (Fig. S2), and ATM (Fig. S3). Substrate modification (here, loss of the R2 group) was determined based on differences between masses of apo and acyl-enzyme peaks (Fig. S4). […] Based on the differences in mass between the apo enzyme peaks, the acyl-enzyme peaks, and the molecular masses of each substrate, the mass of the adducts was determined and used to predict any portion of the substrate molecule that might be lost during the reaction (Fig. S4). As expected ([26][–][28]), all three cephalosporin antibiotics (FEP, CAZ, and TOL) lost their R2 groups during the reaction, while ATM (the sole monobactam) maintained its initial mass.
(§8) Five micrograms of PDC-3 or PDC-88 was incubated at the indicated molar ratio (1:2 to 1:100 PDC:β-lactam) in a total volume of 20 µL in 1× PBS at pH 7.4 at room temperature for the duration of the indicated time points. Reactions were quenched with the addition of 10 µL acetonitrile and added to 1 mL of 0.1% formic acid in water.
(§9) Data were collected using a Waters Synapt G2-Si quadrupole time-of-flight (Q-TOF) mass spectrometer and Waters Acquity UPLC BEH C18 1.7 µm column (2.1 by 100 mm). MassLynx V4.1 was used to deconvolute protein peaks. The tune settings for each sample were as follows: capillary voltage of 3.5 kV, sampling cone voltage of 35 V, source offset of 35 V, source temperature of 100°C, desolvation temperature of 500°C, cone gas flow rate of 100 L/h, desolvation gas flow rate of 800 L/h, and nebulizer bar at 6.0. Mobile phase A was 0.1% formic acid in water. Mobile phase B was 0.1% formic acid in acetonitrile. The mass accuracy of this system is ±5 Da.

PDC-88 [8] = target: T2, PDC-88; experiment: Timed ESI-MS of acyl-enzyme formation, PDC-88; format: biochemical; details: timed ESI-MS, 1 to 30 min (ATM to 60 min)
Description: as §7, §8, §9

[9] = FEP hydrolysis by PDC-3, 1× PBS pH 7.4, room temperature
[10] = FEP hydrolysis by PDC-88, 1× PBS pH 7.4, room temperature

What does the source list for `CO/N=C(\C(=O)N[C@@H]1C(=O)N2C(C(=O)[O-])=C(C[N+]3(C)CCCC3)CS[C@H]12)c1csc(N)n1` [FEP, cefepime]?
MIC ([1]; read-out: MIC FEP TZB): 2 µg/mL (≈ 4.16 µM); MIC ([1]; E. coli DH10B/pTU606 (PDC-1), read-out: MIC FEP Alone): 2 µg/mL (≈ 4.16 µM); MIC ([2]; read-out: MIC FEP AVI): 0.25 µg/mL (≈ 0.52 µM); MIC ([2]; read-out: MIC FEP TZB): 16 µg/mL (≈ 33.3 µM); MIC ([2]; E. coli DH10B/pTU626 (PDC-89), FEP with TAN at constant 4 µg/mL, read-out: MIC FEP TAN): 0.25 µg/mL (≈ 0.52 µM); MIC ([2]; E. coli DH10B/pTU626 (PDC-89), read-out: MIC FEP Alone): 32 µg/mL (≈ 66.6 µM); MIC ([3]; read-out: MIC FEP AVI): 0.5 µg/mL (≈ 1.04 µM); MIC ([3]; read-out: MIC FEP TZB): 32 µg/mL (≈ 66.6 µM); MIC ([3]; E. coli DH10B/pTU629 (PDC-92), FEP with TAN at constant 4 µg/mL, read-out: MIC FEP TAN): 0.25 µg/mL (≈ 0.52 µM); MIC ([3]; E. coli DH10B/pTU629 (PDC-92), read-out: MIC FEP Alone): 64 µg/mL (≈ 133 µM); MIC (E. coli NCTC 13353; NCTC13353, read-out: MIC FEP Alone): 64 µg/mL (≈ 133 µM); MIC (E. coli NCTC 13353; NCTC13353, read-out: MIC FEP TAN): 0.12 µg/mL (≈ 0.25 µM); Km (PDC-3 [4]; [9]): 205 ± 9 µM; kcat (PDC-3 [4]; [9]): 0.25 ± 0.02 s⁻¹; hydrolysis progress curve (PDC-3 [4]; PDC-3, over 900 s, versus UV-mediated background): slightly above background; Km (PDC-88 [5]; [10]): 16 ± 1 µM; kcat (PDC-88 [5]; [10]): 0.16 ± 0.01 s⁻¹; hydrolysis progress curve (PDC-88 [5]; PDC-88, over 900 s, compared to PDC-3): increased hydrolysis; decrease of KM, PDC-88 compared to PDC-3 (PDC-88 [6]): 12.8 fold; decrease of kcat, PDC-88 compared to PDC-3 (PDC-88 [6]): 1.6 fold; higher catalytic efficiency (kcat/KM) of PDC-88 compared to PDC-3 (PDC-88 [6]): approximately 8.3 fold; higher catalytic efficiency (kcat/KM) of PDC-88 compared to PDC-3 (PDC-88 [6]; listed as cefepime): 8.3 fold; acyl-enzyme complex formation and deacylation (PDC-3 [7]): did not form an acyl-enzyme complex; acyl-enzyme complex formation and deacylation (PDC-88 [8]): formed an acyl-enzyme complex with FEP, followed by relatively quick deacylation
